Experiments:
heme-bound REV-ERBβ LBD = biological target: T1, heme-bound REV-ERBβ LBD (Homo sapiens, UniProt Q14995); assay: ITC, NCoR ID peptides with heme-bound REV-ERBβ LBD; type: binding; conditions: for TΔS: pH 7.4, T constant at 25°C; for thermodynamic profile of peptide binding (in words), + heme: heme-bound LBD; for effect of heme on LBD affinity for peptide (in words): heme-bound vs apo LBD
T1 construct: The human REV-ERBβ LBD (residues 381 to 579) was previously cloned; 6xHis with 3C protease cleavage site (N, cleaved yes); made in house; host or cells: E. coli BL21(DE3)
T1 sequence (Q14995 381-579): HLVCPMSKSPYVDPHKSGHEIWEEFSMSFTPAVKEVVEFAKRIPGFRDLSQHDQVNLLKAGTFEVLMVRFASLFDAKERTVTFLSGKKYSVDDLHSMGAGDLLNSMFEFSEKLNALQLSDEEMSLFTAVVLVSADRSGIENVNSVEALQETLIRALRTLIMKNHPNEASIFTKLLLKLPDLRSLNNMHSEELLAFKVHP
Protocol: NCoR RID mutants were generated by site-directed mutagenesis: The ID1 CoRNR box motif was mutated from [sequence] to [sequence] (ΔID1 and ΔID1ΔID2), and the ID2 CoRNR box motif was mutated from LEDIIRKAL to TEDTTRKAL (ΔID2 and ΔID1ΔID2), as these mutations were previously reported to disrupt CoRNR box binding ([10], [30]). Heme (Sigma-Aldrich, no. 51280) was prepared either as a 1 mM stock in dimethyl sulfoxide (DMSO) stored at 4°C or 50 mM stock in 0.2 M NaOH (solutions prepared in 0.2 M NaOH were always made fresh immediately before the experiment), where indicated. […] Human embryonic kidney (HEK) 293T cells (American Type Culture Collection, no. CRL-11268) were cultured in Dulbecco’s modified eagle medium (DMEM) supplemented with 10% fetal bovine serum, 2 mM L-glutamine, and 1% penicillin-streptomycin at 37°C and 5% CO2 under standard culture conditions. The pcDNA3.1^+ expression vector containing full-length human REV-ERBβ ([31]) and the pGL3-Bmal1-luciferase construct containing the Bmal1 promoter (−816 to +99 of the mouse Bmal1 promoter region) were used in HEK293T cell transfections. Site-directed mutagenesis was performed to mutate the proximal RORE (pRORE mutant), distal RORE (dRORE mutant), or both (p/dRORE mutant) in the pGL3-Bmal1-luciferase construct based on a previous study ([6]) where the ROREs were mutated to disrupt REV-ERBα activity.
Expression was performed using auto-induction media: Cells were grown at 37°C for 5 hours, 30°C for 1 hour, and 18°C for 16 hours before harvesting by centrifugation. Pellets were resuspended in potassium phosphate lysis buffer [40 mM potassium phosphate (pH 7.4), 500 mM KCl, 15 mM imidazole, and 1 mM dithiothreitol (DTT)] supplemented with leupeptin, pepstatin A, lysozyme, and deoxyribonuclease (DNase) I and sonicated on ice. […] A 5-ml aliquot of 6xHis-tagged protein was purified by size exclusion chromatography using a Superdex 75 column equilibrated in time-resolved fluorescence energy transfer (TR-FRET) assay buffer [20 mM potassium phosphate (pH 7.4), 50 mM KCl, and 0.5 mM EDTA]; purified aliquots were stored at −80°C for TR-FRET assays. To cleave the 6xHis tag from the remaining protein, it was incubated overnight with 3C protease (generated in-house) via dialysis; then, protein was reloaded onto the HisTrap columns, and the flow-through was collected. Last, aggregates were removed by size exclusion chromatography using a Superdex 75 column and Hepes gel filtration buffer [20 mM Hepes (pH 7.4), 50 mM KCl, and 0.5 mM EDTA]. Greater than 95% purity was confirmed by SDS-PAGE. Protein was aliquoted and stored at −80°C.
ITC experiments were performed using a MicroCal iTC200. All experiments were solvent-matched and contained 0.1% DMSO (peptide vehicle) and 0.2% 0.2 M solution of NaOH (heme vehicle) final concentrations.
LBD in the syringe was titrated into ID peptide in the sample cell at 25°C with a 60-s delay between injections (2-μl intervals) with a mixing speed of 1200 rpm for a total of 20 injections (or 2 molar equivalents of LBD), unless otherwise noted below.

[1] = tested on: apo 15N-labeled REV-ERBβ LBD; assay: NMR structural footprinting, 2D [1H,15N]-TROSY-HSQC titration, apo LBD; type: binding, human; conditions: apo LBD (200 μM), 298 K, 20 mM Hepes pH 7.4, 50 mM NaCl, 0.5 mM EDTA
Excerpt: To support our ITC results, we performed solution NMR structural footprinting by titrating NCoR ID1 or ID2 peptide into ^15N-labeled REV-ERBβ LBD. For this analysis, we used backbone NMR chemical shift assignments that we previously reported for apo LBD ([18]) and collected three-dimensional (3D) NMR data to obtain backbone NMR chemical shift assignments for heme-bound LBD (fig. S4). […] To qualitatively assess the strength of each interaction, we analyzed the exchange regime of NMR chemical shift changes on the NMR time scale. […]
(§1) To generate heme-bound protein, 1.25 molar equivalents of heme prepared in 0.2 M NaOH as a 50 mM stock were added to ^15N-labeled REV-ERBβ LBD (200 μM) or ^2H-,^15N-,^13C-labeled REV-ERBβ LBD (1 mM) in Hepes buffer [20 mM Hepes (pH 7.4), 50 mM NaCl, and 0.5 mM EDTA]. NMR data were collected at 298 K on a Bruker 700-MHz NMR system equipped with a QCI CryoProbe, processed using NMRFx ([40]), and analyzed using NMRViewJ ([41]). […] 2D [^1H,^15N]-TROSY-HSQC data were collected for heme-bound ^15N-labeled REV-ERBβ LBD at 298 K with addition of NCoR ID1 or ID2 peptides prepared as 50 mM stock in DMSO and analyzed in NMRViewJ. […]

[2] = tested on: heme-bound 15N-labeled REV-ERBβ LBD; assay: NMR structural footprinting, 2D [1H,15N]-TROSY-HSQC titration, heme-bound LBD; type: binding, human; conditions: 298 K; for NMR exchange regime on peptide titration: heme-bound LBD (200 μM, 1.25 equivalents heme), 20 mM Hepes pH 7.4, 50 mM NaCl, 0.5 mM EDTA; for NMR CSP and line broadening, binding surface: heme-bound LBD, 2× ID1 or ID2 peptide
Excerpt: To support our ITC results, we performed solution NMR structural footprinting by titrating NCoR ID1 or ID2 peptide into ^15N-labeled REV-ERBβ LBD. For this analysis, we used backbone NMR chemical shift assignments that we previously reported for apo LBD ([18]) and collected three-dimensional (3D) NMR data to obtain backbone NMR chemical shift assignments for heme-bound LBD (fig. S4). […] To qualitatively assess the strength of each interaction, we analyzed the exchange regime of NMR chemical shift changes on the NMR time scale.
Next, we used differential NMR analysis to structurally map the ID1 and ID2 peptide binding surfaces in the heme-bound LBD. In other NRs, the AF-2 coregulator interaction surface is formed by the physical interaction of helix 12 with a surface formed by helices 3 to 5 within the LBD. REV-ERBβ lacks helix 12 but contains the surface formed by helices 3 to 5 including a conserved lysine residue (K421) on helix 3 important for corepressor interaction ([19]). We quantitatively analyzed chemical shift perturbations (CSPs) and line broadening caused by peptide binding in 2D [^1H,^15N]-TROSY-HSQC NMR spectra (Fig. 1D and fig. S6). […] We also observed binding effects on helix 7, which may be attributed to a peptide-induced allosteric conformational change due to interactions between the heme propionate group and G480 on helix 7 (fig. S7).
For generation of ^15N-labeled REV-ERBβ LBD, protein was expressed in BL21(DE3) E. coli cells using M9 minimal media supplemented with ^15NH4Cl (Cambridge Isotope Laboratories) induced at an optical density at 600 nm (OD600) of 0.6 with 0.5 mM isopropyl-β-D-thiogalactopyranoside (IPTG) for 16 hours at 18°C. For generation of ^2H-,^15N-,^13C-labeled REV-ERBβ LBD (~70% deuteration) for peak assignment experiments, cultures were first grown at 37°C in 1 liter of LB media until an OD600 of 0.6 before the cells were pelleted and resuspended in 0.5 liters of M9 minimal media prepared in D2O supplemented with ^13C-D-glucose and ^15NH4Cl (Cambridge Isotope Laboratories). After 1-hour recovery at 37°C, expression was induced with 0.5 mM IPTG for 16 hour at 37°C before harvesting by centrifugation. […]
as §1

[3] = +Heme LBD, pH 7.4, 25°C, 95% CI

Compound | ΔH, enthalpy of binding (heme-bound REV-ERBβ LBD; [3]) | TΔS (heme-bound REV-ERBβ LBD; +Heme LBD, 95% CI) | thermodynamic profile of peptide binding (in words), + heme (heme-bound REV-ERBβ LBD) | effect of heme on LBD affinity for peptide (in words) (heme-bound REV-ERBβ LBD) | NMR exchange regime on peptide titration [1] | NMR exchange regime on peptide titration [2] | NMR CSP and line broadening, binding surface [2] | ΔG, free energy of binding (heme-bound REV-ERBβ LBD; [3])
CC[C@H](C)[C@H](NC(=O)[C@H](CC(=O)O)NC(=O)[C@H](CCC(=O)O)NC(=O)[C@H](CC(C)C)NC(=O)CNC(=O)[C@H](CC(C)C)NC(=O)[C@H](CC(N)=O)NC(=O)[C@H](CO)NC(=O)[C@H](C)NC(=O)[C@@H]1CCCN1C(=O)[C@H](CC(=O)O)NC(C)=O)C(=O)N[C@H](C(=O)N[C@@H](CCCNC(=N)N)C(=O)N[C@@H](CCCCN)C(=O)N[C@@H](C)C(=O)N[C@@H](CC(C)C)C(=O)N[C@@H](CCSC)C(=O)NCC(=O)N[C@@H](CO)C(=O)N[C@@H](Cc1ccccc1)C(=O)N[C@@H](CC(=O)O)C(=O)N[C@@H](CC(=O)O)C(=O)N[C@@H](CCCCN)C(N)=O)[C@@H](C)CC [NCoR ID2 peptide] | 3.0 kcal/mol | 10.7 kcal/mol | entropically driven and endothermic | increased LBD affinity | fast | mixture of peak movements in slow and intermediate exchange | AF-2 surface residues including K421 showed the largest CSP changes and line broadening | 
Ac-RTHRLITLADHICQIITQDFARN-NH2 [NCoR ID1 peptide] | 1.7 kcal/mol | 9.3 kcal/mol | entropically driven and endothermic | decreased LBD affinity | slow | mixture of peak movements in slow and intermediate exchange | AF-2 surface residues including K421 showed the largest CSP changes and line broadening | -7.7 kcal/mol

Source: paper PMC7840129, “Structural basis for heme-dependent NCoR binding to the transcriptional repressor REV-ERBβ” (Science Advances, 2021)
